Data from US20110098323A1, “INHIBITORS OF BACTERIAL BIOFILM FORMATION” (MICROBIOTIX, INC., priority 2009, published 2011).
Read-outs that look alike come from different tables or passages of the source.

How the values were obtained:
Experiment in all cases: MBIC/MIC secondary assay
Assay type in all cases: cell-based, Staphylococcus aureus
[1] = test system: S. aureus ATCC 35556; conditions: for MIC: Staphylococcus aureus, ATCC35556
[2] = test system: S. aureus strain NRS-123; conditions: for MIC: Staphylococcus aureus, NRS123
Description: (§1) Assays for detecting and measuring bacterial biofilm formation are known in the art. An example of a biofilm formation assay useful in detecting and characterizing biofilm inhibitor compounds is described in Example 1, infra. Briefly, bacterial cells are inoculated into growth medium in individual wells of a 96-well assay plate in the presence or absence of a compound (known biofilm inhibitor or test compound). After incubation for a specified time, growth medium and non-biofilm bacterial cells are removed from each of the wells. The bacterial cells in any biofilms that are adhered to the surface of a well are fixed by addition of ethanol. The ethanol is removed, and the fixed biofilm bacteria cells are stained with crystal violet (CV). The intensity of CV staining is directly correlated with bacterial biofilm formation and is measured in the wells by reading the optical density at 600 nm (OD600). The difference in biofilm formation between untreated control and treated cultures provides an indication of relative biofilm inhibition activity (anti-biofilm activity). Use of different concentrations of an inhibitor in multiple and otherwise duplicate cultures permits determination of a compound's Minimal Biofilm Inhibitory Concentration (MBIC), which is defined herein as the lowest concentration of a compound that inhibits biofilm formation by at least 80% (i.e., ≧80%) compared to untreated control cultures.
(§2) A higher throughput was achieved by formatting the assay for use in flat-bottomed 96-well assay plates (Costar 3590 assay plates, Corning Life Sciences, Lowell, Mass.). The biofilm cultures grew on the bottoms of each well in a surface attached mode. In each assay plate, columns 1 and 12 contained untreated cultures, which served as negative controls (0% biofilm inhibition). Each of the assay wells in columns 2-11 contained a unique small molecule from the Microbiotix Screening Library (MSL) at a final concentration of 100 μM. Assay plates were inoculated with 200 μl/well of a culture of Staphylococcus pidermidis 18972 in 0.5×Tryptic Soy Broth (TSB; Becton Dickinson, Franklin Lakes, N.J.) in which the concentration of glucose was adjusted to 0.25% (w/v). The bacterial inocula were prepared by making a 1:100 dilution of an overnight culture grown in TSB in the media used for the screen. After inoculation, assay plates were sealed with foil tape and incubated at 37° C. for 18-20 hours (h). The optical density at 600 nm (OD600) was measured for each well using a VICTOR2V™ multiplate reader (Perkin Elmer, Waltham, Mass.) in order to quantify overall bacterial growth. The assay plates were processed to remove bacterial growth media and non-biofilm cells from the bottom of each assay well. This was accomplished by using a BioTek ELx405™ plate washer (BioTek Instruments, Inc., Winooski, Vt.). Biofilm bacteria were fixed by addition of 50 μl of 95% ethanol for 30 minutes (min). The ethanol was removed, and the fixed biofilm cultures were stained with 50 μl of 0.06% crystal violet (CV) for 60 min. Excess CV was removed by repeated washes using the BioTek ELx405™ plate washer. The amount of CV bound to each assay well was quantified by measuring OD600 using a VICTOR2V™ plate reader (Perkin Elmer).
(§3) A secondary assay provided a quantitative measure of both anti-biofilm activity and antibacterial activity in terms of the Minimal Biofilm Inhibitory Concentration (MBIC) and the Minimal Inhibitory Concentration (MIC), respectively. The MBIC and MIC are defined as the lowest compound concentrations that inhibit biofilm formation and bacterial growth, respectively, by at least 80% (i.e., ≧80%). The MBIC/MIC assay is formatted in a manner that is similar to the Microbroth dilution assays described by the Clinical and Laboratory Standards Institute (CLSI; formerly NCCLS) in protocol M7-A7. The growth conditions were optimized for biofilm growth in 96-well assay plates such that the resulting CV staining was within the linear range of detection. […]

[3] = test system: methicillin-susceptible S. aureus (MSSA); conditions: for MIC: Staphylococcus aureus
Description: as §1, §2, §3

[4] = S. aureus strain 35556, Table 5

MIC ([1]; S. aureus strain 35556, Table 5, read-out: MIC) [µM]	MIC ([2]; S. aureus strain NRS-123, read-out: MIC) [µM]	MIC ([3]; S. aureus strain MSSA, read-out: MIC) [µM]	Structure (SMILES)	MBIC [1, 4] [µM]	MIC [1] [µM]	MBIC ([2]; S. aureus strain NRS-123) [µM]	MIC [2] [µM]	MBIC ([3]; S. aureus strain MSSA) [µM]	MIC ([3]; MSSA) [µM]	MBIC ([1]; S. aureus ATCC 35556, stated in text of Examples 5 and 6) [µM]
			CCOc1cc(/C=C2\SC(=S)N(c3ccc(F)nc3)C2=O)ccc1O [Compound 40, 3-(6-fluoropyridin-3-yl)-5-(3-ethoxy-4-hydroxybenzylidene)-2-thioxothiazolidin-4-one]	6.3	≥ 100	50	≥ 100	6.3	≥ 100	
			CCOc1cc(/C=C2\SC(=S)N(c3cccnc3)C2=O)ccc1O [Compound 36, 3-(pyridin-3-yl)-5-(3-ethoxy-4-hydroxybenzylidene)-2-thioxothiazolidin-4-one]	12.5	≥ 100	12.5	≥ 100	12.5	≥ 100	
			CCOc1cc(/C=C2\SC(=S)N(c3ccc(F)cc3)C2=O)ccc1O [Compound 4, 3-(4-fluorophenyl)-5-(3-ethoxy-4-hydroxybenzylidene)-2-thioxothiazolidin-4-one]	3.1	≥ 100	25	≥ 100	12.5	≥ 100	3.125
			CCOc1cc(/C=C2\SC(=S)N(c3cccc(C#N)c3)C2=O)ccc1O [Compound 34, 3-(3-cyanophenyl)-5-(3-ethoxy-4-hydroxybenzylidene)-2-thioxothiazolidin-4-one]	1.6	≥ 100	25	≥ 100	12.5	≥ 100	
			CCOc1cc(/C=C2\SC(=S)N(c3cccc(F)c3)C2=O)ccc1O [Compound 8, 3-(3-fluorophenyl)-5-(3-ethoxy-4-hydroxybenzylidene)-2-thioxothiazolidin-4-one]	6.3	≥ 100	25	≥ 100	25	≥ 100	
≥ 100	≥ 100	≥ 100	C=CCOc1cc(/C=C2\SC(=S)N(c3ccc(F)cc3)C2=O)ccc1O [Compound 29, 3-(4-fluorophenyl)-5-(3-allyloxy-4-hydroxybenzylidene)-2-thioxothiazolidin-4-one]	3.1		25		12.5		
